This note sets out measurements from PMC9975586, “Inhibitory effect of Selaginella doederleinii hieron on human cytochrome P450” (Frontiers in Pharmacology, 2023).

In one data set the target is T1, CYP1A2 (Homo sapiens, UniProt P05177).
T1 sequence (P05177 1-516): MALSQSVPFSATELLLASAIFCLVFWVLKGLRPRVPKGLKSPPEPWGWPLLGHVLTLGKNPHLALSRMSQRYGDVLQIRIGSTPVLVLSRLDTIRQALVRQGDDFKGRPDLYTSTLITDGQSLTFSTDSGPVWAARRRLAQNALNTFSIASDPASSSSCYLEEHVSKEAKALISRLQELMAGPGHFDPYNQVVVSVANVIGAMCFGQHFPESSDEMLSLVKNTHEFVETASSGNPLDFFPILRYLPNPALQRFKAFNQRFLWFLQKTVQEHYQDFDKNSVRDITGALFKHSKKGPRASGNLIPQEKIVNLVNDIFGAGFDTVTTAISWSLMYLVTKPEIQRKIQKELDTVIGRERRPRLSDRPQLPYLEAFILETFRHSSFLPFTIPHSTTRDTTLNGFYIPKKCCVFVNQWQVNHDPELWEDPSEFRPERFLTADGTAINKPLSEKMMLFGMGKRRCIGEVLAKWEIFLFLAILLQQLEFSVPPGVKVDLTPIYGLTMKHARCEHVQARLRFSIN
Briefly: CYP450 cocktail inhibition assay (LC-MS/MS, human liver microsomes). Type of data set: in vitro ADME. Conditions: for IC50: HLM 0.5 mg/mL, substrate Phenacetin 10 μM, 15 min. On the procedure:
(§1) The contents of organic solvent and DMSO in incubation mixture was under 1% (v/v) and 0.1% (v/v) respectively. Reactions were terminated by adding 200 µL of an ice-cold stop solution consisting of methanol containing Rutin (2 µg/ml) as internal standard. Samples were subsequently cooled in ice bath to precipitate proteins. Supernatants were collected into clean tubes after centrifugation at 12000 rpm at 4°C for 10 min prior to inject into LC-MS/MS.
(§2) Percentages of control activity were calculated to determine inhibition potency. The inhibition curves were obtained by incubating the cocktail of substrates with 10–11 different compounds’ concentrations, where Delicaflavone and Amentoflavone were 0–50 µM.
(§3) For specific MRM parameters, please refer to Supplementary Table S3.

In data set [1] the target is T2, CYP2C19 (Homo sapiens, UniProt P33261). Described as above. On the procedure: as §1, §2, §3
Another data set has as its target T3, CYP2C8 (Homo sapiens, UniProt P10632).
T3 sequence (P10632 1-490): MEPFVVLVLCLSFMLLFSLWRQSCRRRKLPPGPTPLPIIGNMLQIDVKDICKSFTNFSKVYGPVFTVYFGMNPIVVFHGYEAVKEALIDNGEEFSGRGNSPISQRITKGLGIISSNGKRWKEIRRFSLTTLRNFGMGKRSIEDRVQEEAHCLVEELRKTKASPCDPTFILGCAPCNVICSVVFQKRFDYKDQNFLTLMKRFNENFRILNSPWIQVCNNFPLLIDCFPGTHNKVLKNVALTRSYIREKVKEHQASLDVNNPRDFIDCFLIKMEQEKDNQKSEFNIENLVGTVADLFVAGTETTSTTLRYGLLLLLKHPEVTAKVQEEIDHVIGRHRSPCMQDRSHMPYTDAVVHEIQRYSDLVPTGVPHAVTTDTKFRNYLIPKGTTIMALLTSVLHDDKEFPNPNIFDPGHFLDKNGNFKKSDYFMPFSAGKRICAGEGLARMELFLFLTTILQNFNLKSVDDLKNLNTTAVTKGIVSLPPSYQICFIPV
The description is as above. Conditions: for inhibition at 15 min, 10 µM: human, microsomes, pH 7.4. How it is done: as §1, §2, §3

The target of a further data set is CYP2C9 (Homo sapiens, UniProt P11712). The data set is described as above. Particulars: for inhibition at 15 min, 10 µM: human, microsomes, pH 7.4. How it is done:
as §1, §2, §3

Data set [2] has as its target T4, CYP2D6 (Homo sapiens, UniProt P10635). The description is as above. How it is done: as §1, §2, §3
In the next data set the target is CYP2E1 (Homo sapiens, UniProt P05181). Described as above. Particulars: for inhibition at 15 min, 10 µM: human, pH 7.4. How it is done: as §1, §2, §3
The next data set concerns the target CYP3A (Homo sapiens, UniProt P08684). The description is as above. Conditions: for IC50 at 15 min / inhibition at 15 min, 10 µM: human, liver microsomes. Format: in vitro ADME.
Data set [3] deals with T2, CYP2C19. The data set can be described thus: Time-dependent inhibition study (pre-incubation with HLM with/without NADPH, cocktail assay). Format: in vitro ADME. Particulars: single point screening; SDEA 0.5 μg/ml, Amentoflavone 0.1 μM, Delicaflavone 2 μM; 35 min pre-incubation with/without NADPH. On the procedure:
(§4) Enzymes that may be involved in time-dependent were pre-incubated for 0, 5, 10, 15 and 35 min respectively, and then re-incubated to determine the type of inhibition. Residual enzyme activity pre-incubated without NADPH was set as the control group, then drawing suppression curves based on the measured data.

For data set [4], the target named is T4, CYP2D6. Described as above. Type of data set: in vitro ADME. Particulars: single point screening; SDEA 0.5 μg/ml, Amentoflavone 0.1 μM, Delicaflavone 2 μM; 35 min pre-incubation with/without NADPH. On the procedure: as §4
A further data set relates to CYP3A (Testosterone). Described as above. Format: in vitro ADME, human. Particulars: single point screening; SDEA 0.5 μg/ml, Delicaflavone 2 μM; 35 min pre-incubation with/without NADPH. How it is done: as §4
The mark [5] stands for this setting: pH 7.4, probe Dextromethorphan (3-methoxymorphinan formation, in cocktail).
[6] abbreviates: pH 7.4, probe Testosterone 5 µM (in cocktail).
[7] abbreviates: pH 7.4, probe Testosterone (in cocktail), single-point, 10 μM, cocktail assay, HLM, substrate Testosterone, read-out: inhibitory effect on CYP3A (Testosterone).
The mark [8] stands for this setting: single-point, 10 μM, cocktail assay, HLM.

Like-named read-outs stand apart in the source and are kept apart here.

Sequence of CYP2E1 (P05181 whole entry): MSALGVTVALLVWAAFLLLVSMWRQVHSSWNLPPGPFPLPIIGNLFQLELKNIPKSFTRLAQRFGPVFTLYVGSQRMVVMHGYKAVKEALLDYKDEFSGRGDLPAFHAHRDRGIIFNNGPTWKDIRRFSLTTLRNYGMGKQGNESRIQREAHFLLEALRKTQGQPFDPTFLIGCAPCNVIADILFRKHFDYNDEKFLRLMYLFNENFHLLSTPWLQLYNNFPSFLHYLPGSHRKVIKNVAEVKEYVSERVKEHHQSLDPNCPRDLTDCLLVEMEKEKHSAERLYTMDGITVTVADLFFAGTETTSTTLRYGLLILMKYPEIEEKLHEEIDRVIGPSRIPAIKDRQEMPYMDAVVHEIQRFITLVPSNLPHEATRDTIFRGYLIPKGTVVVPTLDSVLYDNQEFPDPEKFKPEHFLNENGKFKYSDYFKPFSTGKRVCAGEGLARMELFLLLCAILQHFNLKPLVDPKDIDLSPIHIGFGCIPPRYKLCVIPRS
Sequence of CYP3A (P08684 2-503): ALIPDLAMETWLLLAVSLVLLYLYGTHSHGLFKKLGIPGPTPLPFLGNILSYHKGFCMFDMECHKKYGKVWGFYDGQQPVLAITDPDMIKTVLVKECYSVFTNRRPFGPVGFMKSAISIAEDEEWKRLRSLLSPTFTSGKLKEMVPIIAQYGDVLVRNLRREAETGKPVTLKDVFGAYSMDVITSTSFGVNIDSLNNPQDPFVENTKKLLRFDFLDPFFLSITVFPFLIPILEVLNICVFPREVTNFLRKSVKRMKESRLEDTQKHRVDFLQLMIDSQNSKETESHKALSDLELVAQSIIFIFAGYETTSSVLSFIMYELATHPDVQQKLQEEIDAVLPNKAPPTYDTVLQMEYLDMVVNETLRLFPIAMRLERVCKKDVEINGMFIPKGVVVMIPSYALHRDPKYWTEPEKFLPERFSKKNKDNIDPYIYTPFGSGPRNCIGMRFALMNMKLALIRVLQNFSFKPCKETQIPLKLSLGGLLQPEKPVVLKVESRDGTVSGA
Sequence of CYP2C9 (P11712 whole entry): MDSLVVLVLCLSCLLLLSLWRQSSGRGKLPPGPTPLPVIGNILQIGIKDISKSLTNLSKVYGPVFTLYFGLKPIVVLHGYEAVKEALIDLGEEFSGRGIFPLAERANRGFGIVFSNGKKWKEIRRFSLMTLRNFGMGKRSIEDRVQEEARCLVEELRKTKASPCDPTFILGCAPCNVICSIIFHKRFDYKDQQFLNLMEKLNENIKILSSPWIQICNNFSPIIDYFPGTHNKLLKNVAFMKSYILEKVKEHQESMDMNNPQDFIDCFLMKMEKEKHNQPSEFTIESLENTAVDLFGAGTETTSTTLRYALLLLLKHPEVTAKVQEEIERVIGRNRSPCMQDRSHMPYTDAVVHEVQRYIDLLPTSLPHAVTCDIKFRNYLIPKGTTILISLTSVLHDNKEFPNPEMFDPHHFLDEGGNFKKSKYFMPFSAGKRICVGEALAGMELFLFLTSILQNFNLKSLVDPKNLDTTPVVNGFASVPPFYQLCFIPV
T4 sequence (P10635 whole entry): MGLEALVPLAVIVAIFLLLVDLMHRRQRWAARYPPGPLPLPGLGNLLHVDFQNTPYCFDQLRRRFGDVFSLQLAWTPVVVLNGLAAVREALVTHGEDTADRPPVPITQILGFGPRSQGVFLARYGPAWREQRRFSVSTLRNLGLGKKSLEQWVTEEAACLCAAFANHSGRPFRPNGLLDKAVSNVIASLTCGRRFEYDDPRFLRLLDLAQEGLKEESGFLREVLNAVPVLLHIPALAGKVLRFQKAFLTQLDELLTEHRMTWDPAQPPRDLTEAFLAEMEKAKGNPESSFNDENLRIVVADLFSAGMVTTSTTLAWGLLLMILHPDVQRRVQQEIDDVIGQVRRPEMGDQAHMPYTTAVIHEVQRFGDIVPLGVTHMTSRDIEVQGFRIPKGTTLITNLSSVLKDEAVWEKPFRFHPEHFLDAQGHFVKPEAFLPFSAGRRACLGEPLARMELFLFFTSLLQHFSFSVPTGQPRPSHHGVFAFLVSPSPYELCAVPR
T2 sequence (P33261 whole entry): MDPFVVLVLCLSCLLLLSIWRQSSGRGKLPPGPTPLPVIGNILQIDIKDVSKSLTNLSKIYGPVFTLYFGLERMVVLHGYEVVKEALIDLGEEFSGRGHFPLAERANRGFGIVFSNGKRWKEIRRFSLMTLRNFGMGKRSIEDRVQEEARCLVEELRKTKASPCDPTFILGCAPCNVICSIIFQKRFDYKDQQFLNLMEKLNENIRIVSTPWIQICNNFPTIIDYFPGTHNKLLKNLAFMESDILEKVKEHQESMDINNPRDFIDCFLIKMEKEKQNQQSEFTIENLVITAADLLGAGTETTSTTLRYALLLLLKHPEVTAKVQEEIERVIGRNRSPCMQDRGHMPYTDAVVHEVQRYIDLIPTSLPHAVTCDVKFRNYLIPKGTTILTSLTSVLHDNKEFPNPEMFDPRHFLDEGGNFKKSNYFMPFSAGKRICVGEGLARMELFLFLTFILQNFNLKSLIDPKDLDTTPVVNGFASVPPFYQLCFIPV

As to `O=c1cc(-c2ccc(O)c(-c3c(O)cc(O)c4c(=O)cc(-c5ccc(O)cc5)oc34)c2)oc2cc(O)cc(O)c12` [Amentoflavone], the IC50 on CYP1A2 worked out at 3.7 µM; on CYP2C19 [1] it was 1.06 µM; against CYP2C8, 0.144 µM; against CYP2C9, 0.142 µM; on CYP2D6 [2] it was 4.6 µM; on CYP2E1, 1.05 µM. Moreover, the inhibition at 15 min, 10 µM on CYP1A2 (human, liver microsomes, pH 7.4, probe Phenacetin (in cocktail), single-point, 10 μM, HLM, read-out: inhibitory effect on CYP1A2) was greater than 50%; against CYP2C19 [1] (human, microsomes, pH 7.4), greater than 50%; against CYP2C8 it was greater than 50%; on CYP2C9, greater than 50%; against CYP2D6 [2] (human, microsomes, pH 7.4) it was greater than 50%; at CYP2E1 (microsomes), greater than 50%. In addition, on CYP3A (pH 7.4, single-point, 10 μM, cocktail assay, HLM, substrate not specified, read-out: inhibitory effect on CYP3A), the inhibition at 15 min, 10 µM is greater than 50%. Besides, the half-inhibitory concentration (IC50) at 15 min against CYP3A (setting [5]) came out at 0.827 µM; against CYP3A (setting [6]) it was 0.435 µM.
Take `O=c1cc(-c2ccc(O)cc2)oc2cc(O)cc(O)c12` [Apigenin]: the inhibition at 15 min, 10 µM on CYP2C8, at CYP2C9, against CYP2E1 (microsomes) and at CYP3A (setting [7]) was greater than 50% throughout.
For `O=c1cc(-c2ccc(Oc3c(-c4ccc(O)cc4)oc4cc(O)cc(O)c4c3=O)cc2)oc2cc(O)cc(O)c12` [Delicaflavone], the half-inhibitory concentration (IC50) at CYP1A2 worked out at 105 µM; at CYP2C19 [1], 72.8 µM; on CYP2C8, 13.4 µM; on CYP2C9, 40 µM; against CYP2E1, 2.86 µM. Moreover, the “inhibitory effect on CYP1A2” value against CYP1A2 (single-point, 10 μM, HLM) is reported as “no obvious inhibitory effect”. The “inhibitory effect on CYP2C19” value against CYP2C19 [1] (setting [8]) is on record as “no obvious inhibitory effect”. On CYP2C8 (setting [8]), the “inhibitory effect on CYP2C8” value is “no obvious inhibitory effect”. In addition, the “inhibitory effect on CYP2C9” value at CYP2C9 (setting [8]) is listed as “no obvious inhibitory effect”. Moreover, the “inhibitory effect on CYP2D6” value on CYP2D6 [2] (setting [8]) was “no obvious inhibitory effect”. Besides, on CYP2E1 (setting [8]), the “inhibitory effect on CYP2E1” value is given as “weak inhibitory effect”. Besides, the half-inhibitory concentration (IC50) at 15 min worked out at 33.3 µM against CYP3A (setting [5]) and 7.25 µM at CYP3A (setting [6]). At CYP3A (single-point, 10 μM, cocktail assay, HLM, substrate not specified), the “inhibitory effect on CYP3A” value is “weak inhibitory effect”. Moreover, at CYP2C19 [3], the “time-dependent inhibition on CYP2C19” value is reported as “did not produce time-dependent inhibition effect”. Besides, at CYP2D6 [4], the “time-dependent inhibition on CYP2D6” value is on record as “did not produce time-dependent inhibition effect”. Further, in the data set on CYP3A (Testosterone), the “time-dependent inhibition on CYP3A (Testosterone)” value is recorded as “did not produce time-dependent inhibition effect”.
With `COc1cc2c(cc1OC)-c1cc3ccc(OC)c(OC)c3c[n+]1CC2` [Palmatine], the “inhibitory effect on CYP2E1” value against CYP2E1 (microsomes, 10 µM) is reported as “weak inhibitory effect”. Moreover, the inhibition at 15 min, 10 µM on CYP3A (setting [7]) is greater than 50%.
